*1 amine or outer side, *2 acyl side, *3 side chain or, on linkers, in order; H or OH if unused. Where a SMILES comes first, the peptide text is derived from it. Bridges are numbered along the chain shown (N, C = ends). Roman numbers before positions name the chains, in order. [ ]: non-standard residue; d: D form. Actinocin(9to1) = Cc1c2oc3c(C)ccc(C(=O)[*:1])c3nc-2c(C(=O)[*:2])c(N)c1=O; NMeV = CN[C@H](C(=O)O)C(C)C; Sar = CNCC(=O)O
target: T1, Broad substrate specificity ATP-binding cassette transporter ABCG2 (Homo sapiens, UniProt Q9UNQ0); test: TP_TRANSPORTER: Anti-HIV-1 activity in MT-4 and MT-4/DOX500; assay type: functional, cell-based
T1 sequence (Q9UNQ0 whole entry): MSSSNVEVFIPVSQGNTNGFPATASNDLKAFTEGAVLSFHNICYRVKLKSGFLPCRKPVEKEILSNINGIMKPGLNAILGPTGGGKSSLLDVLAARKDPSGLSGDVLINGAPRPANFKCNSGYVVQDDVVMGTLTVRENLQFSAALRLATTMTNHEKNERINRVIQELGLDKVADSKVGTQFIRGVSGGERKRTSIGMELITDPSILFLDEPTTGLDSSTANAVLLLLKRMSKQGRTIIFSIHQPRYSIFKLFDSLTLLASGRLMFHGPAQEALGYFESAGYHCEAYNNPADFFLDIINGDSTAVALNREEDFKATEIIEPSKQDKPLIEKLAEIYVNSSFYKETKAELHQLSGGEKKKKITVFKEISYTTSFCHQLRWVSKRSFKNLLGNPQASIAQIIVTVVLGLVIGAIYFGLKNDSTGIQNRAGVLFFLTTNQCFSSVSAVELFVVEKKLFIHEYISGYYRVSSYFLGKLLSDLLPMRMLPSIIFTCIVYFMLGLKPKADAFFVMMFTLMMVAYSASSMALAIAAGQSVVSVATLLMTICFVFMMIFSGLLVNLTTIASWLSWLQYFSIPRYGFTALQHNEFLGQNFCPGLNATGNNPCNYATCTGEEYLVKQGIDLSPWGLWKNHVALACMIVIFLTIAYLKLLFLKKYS

Row | Activity | Compound
1 | substrate [] | Nc1ccn([C@@H]2CS[C@H](CO)O2)c(=O)n1 [LAMIVUDINE]
2 | substrate [] | Cc1cn([C@H]2C[C@H](N=[N+]=[N-])[C@@H](CO)O2)c(=O)[nH]c1=O [ZIDOVUDINE]

target: T1, Broad substrate specificity ATP-binding cassette transporter ABCG2; test: TP_TRANSPORTER: Cytotoxicity in MT-4 and MT-4/DOX500 cells; assay type: functional, cell-based

Row | Compound | Activity
3 | CCc1c2c(nc3ccc(O)cc13)-c1cc3c(c(=O)n1C2)COC(=O)[C@]3(O)CC [7-ETHYL-10-HYDROXYCAMPTOTHECIN] | substrate []
4 | Cc1c2oc3c(C)ccc(C(=O)N[C@@H]4C(=O)N[C@H](C(C)C)C(=O)N5CCC[C@H]5C(=O)N(C)CC(=O)N(C)[C@@H](C(C)C)C(=O)O[C@@H]4C)c3nc-2c(C(=O)N[C@@H]2C(=O)N[C@H](C(C)C)C(=O)N3CCC[C@H]3C(=O)N(C)CC(=O)N(C)[C@@H](C(C)C)C(=O)O[C@@H]2C)c(N)c1=O [DACTINOMYCIN] (I: T[dV]P[Sar][NMeV] / II: T[dV]P[Sar][NMeV]; ester I:1-I:C, II:1-II:C; linker I:N-II:N via Actinocin(9to1)) | substrate []
5 | COc1cccc2c1C(=O)c1c(O)c3c(c(O)c1C2=O)C[C@@](O)(C(=O)CO)C[C@@H]3O[C@H]1C[C@H](N)[C@H](O)[C@H](C)O1 [DOXORUBICIN] | substrate []
6 | COc1cc([C@@H]2c3cc4c(cc3[C@@H](O[C@@H]3O[C@@H]5CO[C@@H](C)O[C@H]5[C@H](O)[C@H]3O)[C@H]3COC(=O)[C@H]23)OCO4)cc(OC)c1O [ETOPOSIDE] | substrate []
7 | CCc1c2c(nc3ccc(OC(=O)N4CCC(N5CCCCC5)CC4)cc13)-c1cc3c(c(=O)n1C2)COC(=O)[C@]3(O)CC [IRINOTECAN] | substrate []
8 | O=C1c2c(O)ccc(O)c2C(=O)c2c(NCCNCCO)ccc(NCCNCCO)c21 [MITOXANTRONE] | substrate []
9 | Cc1cn([C@H]2C[C@H](N=[N+]=[N-])[C@@H](CO)O2)c(=O)[nH]c1=O [ZIDOVUDINE] | substrate []

— ChEMBL document CHEMBL2074221, “Breast cancer resistance protein (BCRP/ABCG2) induces cellular resistance to HIV-1 nucleoside reverse transcriptase inhibitors” (Mol Pharmacol, 2003)
